“And” between values parts separate entries of the source, which are not always exact repeats. Equal entries are not always repeated. Inconclusive results and toxic doses are left out.
Tested on: BDF1 mice, P1081 chloroleukemia ip, survival T/C
Assay: NCI In Vivo Anticancer Drug Screen. Data for tumor model P1081 Chloroleukemia (intraperitoneal) in B6D2F1 (BDF1) mice
Conditions: endpoint: mean survival time, higher = longer survival
Protocol: The antitumor activity of compounds was measured in mice bearing transplantable tumors. Survival or tumor size were measured and the results are expressed as the measurement made in the treated group (T) divided by the measurement made in the vehicle treated control group (C). The tumor model used in this assay is P1081 Chloroleukemia (intraperitoneal) in B6D2F1 (BDF1) mice

[1] = dose: 6.25 mg/kg/injection, schedule: Q01DX Z (ip), vehicle: carboxymethylcellulose (CMC)
[2] = dose: 12.5 mg/kg/injection, schedule: Q01DX Z (ip), vehicle: carboxymethylcellulose (CMC)
[3] = dose: 25.0 mg/kg/injection, schedule: Q01DX Z (ip), vehicle: carboxymethylcellulose (CMC)
[4] = dose: 50.0 mg/kg/injection, schedule: Q01DX Z (ip), vehicle: carboxymethylcellulose (CMC)
[5] = dose: 100.0 mg/kg/injection, schedule: Q01DX Z (ip), vehicle: carboxymethylcellulose (CMC)
[6] = dose: 0.25 mg/kg/injection, schedule: Q01DX Z (ip), vehicle: carboxymethylcellulose (CMC)
[7] = dose: 5.0 mg/kg/injection, schedule: Q01DX010 (ip), vehicle: saline

## CCCSc1ncnc2nc[nH]c12
[1]
  T/C: 111 % of control
[2]
  T/C: 122 % of control
dose: 31.3 mg/kg/injection, schedule: Q01DX010 (ip), vehicle: saline
  T/C: 105 % of control and 100 % of control
dose: 62.5 mg/kg/injection, schedule: Q01DX010 (ip), vehicle: saline
  T/C: 105 % of control and 111 % of control
dose: 125.0 mg/kg/injection, schedule: Q01DX010 (ip), vehicle: saline
  T/C: 105 % of control and 111 % of control
dose: 250.0 mg/kg/injection, schedule: Q01DX010 (ip), vehicle: saline
  T/C: 122 % of control and 100 % of control

## CS(=O)(=O)OCCCl
[2]
  T/C: 98 % of control
dose: 18.8 mg/kg/injection, schedule: Q01DX010 (ip), vehicle: saline
  T/C: 105 % of control and 95 % of control
[3]
  T/C: 110 % of control
dose: 37.5 mg/kg/injection, schedule: Q01DX010 (ip), vehicle: saline
  T/C: 110 % of control and 100 % of control
[4]
  T/C: 98 % of control
dose: 75.0 mg/kg/injection, schedule: Q01DX010 (ip), vehicle: saline
  T/C: 105 % of control and 90 % of control
[5]
  T/C: 94 % of control
dose: 2000.0 mg/kg/injection, schedule: Q01DX Z (ip), vehicle: carboxymethylcellulose (CMC)
  T/C: 103 % of control

## CC(=O)OCC1OC(n2ncc(=O)[nH]c2=O)C(OC(C)=O)C1OC(C)=O (configuration not stated)
dose: 118.0 mg/kg/injection, schedule: Q01DX Z (ip), vehicle: other
  T/C: 100 % of control
dose: 235.0 mg/kg/injection, schedule: Q01DX Z (ip), vehicle: other
  T/C: 93 % of control
dose: 468.75 mg/kg/injection, schedule: Q01DX Z (ip), vehicle: alkali diluted with saline
  T/C: 115 % of control
dose: 469.0 mg/kg/injection, schedule: Q01DX Z (ip), vehicle: other
  T/C: 91 % of control
dose: 1875.0 mg/kg/injection, schedule: Q01DX Z (ip), vehicle: alkali diluted with saline
  T/C: 121 % of control
dose: 3750.0 mg/kg/injection, schedule: Q01DX Z (ip), vehicle: alkali diluted with saline
  T/C: 111 % of control

## Nc1nc2n[nH]nc2c(=O)[nH]1
dose: 50.0 mg/kg/injection, schedule: Q01DX Z (ip), vehicle: other
  T/C: 175 % of control
dose: 100.0 mg/kg/injection, schedule: Q01DX Z (ip), vehicle: other
  T/C: 183 % of control

## N#Cc1cn(C2OC(CO)C(O)C2O)c2ncnc(N)c12 (configuration not stated)
dose: 0.03 mg/kg/injection, schedule: Q01DX Z (ip), vehicle: carboxymethylcellulose (CMC)
  T/C: 97 % of control
dose: 0.06 mg/kg/injection, schedule: Q01DX Z (ip), vehicle: carboxymethylcellulose (CMC)
  T/C: 103 % of control
dose: 0.12 mg/kg/injection, schedule: Q01DX Z (ip), vehicle: carboxymethylcellulose (CMC)
  T/C: 103 % of control
[6]
  T/C: 88 % of control
dose: 0.5 mg/kg/injection, schedule: Q01DX Z (ip), vehicle: carboxymethylcellulose (CMC)
  T/C: 94 % of control

## Oc1cc(CN(CCCl)CCCl)c(O)cc1CN(CCCl)CCCl
dose: 0.06 mg/kg/injection, schedule: Q01DX Z (sc), vehicle: steriod suspending solution
  T/C: 101 % of control
dose: 0.12 mg/kg/injection, schedule: Q01DX Z (sc), vehicle: steriod suspending solution
  T/C: 109 % of control
dose: 0.24 mg/kg/injection, schedule: Q01DX Z (sc), vehicle: steriod suspending solution
  T/C: 114 % of control
dose: 0.49 mg/kg/injection, schedule: Q01DX Z (sc), vehicle: steriod suspending solution
  T/C: 172 % of control
dose: 0.63 mg/kg/injection, schedule: Q01DX010 (ip), vehicle: saline
  T/C: 110 % of control and 100 % of control
dose: 0.99 mg/kg/injection, schedule: Q01DX Z (sc), vehicle: steriod suspending solution
  T/C: 175 % of control
dose: 1.25 mg/kg/injection, schedule: Q01DX010 (ip), vehicle: saline
  T/C: 120 % of control and 104 % of control
dose: 2.5 mg/kg/injection, schedule: Q01DX010 (ip), vehicle: saline
  T/C: 122 % of control
dose: 3.75 mg/kg/injection, schedule: Q01DX Z (sc), vehicle: steriod suspending solution
  T/C: 104 % of control
[7]
  T/C: 115 % of control and 118 % of control
dose: 7.5 mg/kg/injection, schedule: Q01DX Z (sc), vehicle: steriod suspending solution
  T/C: 110 % of control and 101 % of control

## C[C@]12CCC(=O)C=C1CC[C@@H]1[C@@H]2CC[C@@]2(C)[C@H]1CC[C@]2(C)O
dose: 62.5 mg/kg/injection, schedule: Q01DX Z (sc), vehicle: steriod suspending solution
  T/C: 101 % of control
dose: 125.0 mg/kg/injection, schedule: Q01DX Z (sc), vehicle: steriod suspending solution
  T/C: 101 % of control
dose: 250.0 mg/kg/injection, schedule: Q01DX Z (sc), vehicle: steriod suspending solution
  T/C: 106 % of control and 108 % of control
dose: 500.0 mg/kg/injection, schedule: Q01DX Z (sc), vehicle: steriod suspending solution
  T/C: 91 % of control and 101 % of control
dose: 1000.0 mg/kg/injection, schedule: Q01DX Z (sc), vehicle: steriod suspending solution
  T/C: 100 % of control

## C[N+](C)(C)c1ncnc2nc[nH]c12
dose: 3.1 mg/kg/injection, schedule: Q01DX Z (ip), vehicle: carboxymethylcellulose (CMC)
  T/C: 94 % of control
[1]
  T/C: 97 % of control
[2]
  T/C: 100 % of control
[5]
  T/C: 195 % of control

## NC(=O)c1cn(C2OC(CO)C(O)C2O)c2ncnc(N)c12 (configuration not stated)
[6]
  T/C: 102 % of control

## CN(C)c1ccc(/C=C/c2ccnc3ccccc23)cc1
dose: 1.56 mg/kg/injection, schedule: Q01DX Z (ip), vehicle: water
  T/C: 100 % of control
dose: 3.12 mg/kg/injection, schedule: Q01DX Z (ip), vehicle: water
  T/C: 94 % of control
[7]
  T/C: 111 % of control and 100 % of control
[1]
  T/C: 110 % of control
dose: 6.25 mg/kg/injection, schedule: Q01DX Z (ip), vehicle: water
  T/C: 101 % of control
dose: 10.0 mg/kg/injection, schedule: Q01DX010 (ip), vehicle: saline
  T/C: 110 % of control and 100 % of control
[2]
  T/C: 115 % of control
dose: 12.5 mg/kg/injection, schedule: Q01DX Z (ip), vehicle: water
  T/C: 107 % of control
dose: 20.0 mg/kg/injection, schedule: Q01DX010 (ip), vehicle: saline
  T/C: 111 % of control and 100 % of control
[3]
  T/C: 102 % of control
dose: 40.0 mg/kg/injection, schedule: Q01DX010 (ip), vehicle: saline
  T/C: 111 % of control and 95 % of control
[4]
  T/C: 119 % of control and 97 % of control
[5]
  T/C: 104 % of control

## CCN(CC)c1ccc2cc3ccc(=[N+](CC)CC)cc-3oc2c1
dose: 0.31 mg/kg/injection, schedule: Q01DX Z (ip), vehicle: carboxymethylcellulose (CMC)
  T/C: 101 % of control
dose: 0.63 mg/kg/injection, schedule: Q01DX Z (ip), vehicle: carboxymethylcellulose (CMC)
  T/C: 98 % of control
dose: 1.25 mg/kg/injection, schedule: Q01DX Z (ip), vehicle: carboxymethylcellulose (CMC)
  T/C: 108 % of control
dose: 2.5 mg/kg/injection, schedule: Q01DX Z (ip), vehicle: carboxymethylcellulose (CMC)
  T/C: 105 % of control and 114 % of control
dose: 5.0 mg/kg/injection, schedule: Q01DX Z (ip), vehicle: carboxymethylcellulose (CMC)
  T/C: 96 % of control

## CCN(CC)C(=S)S
dose: 125.0 mg/kg/injection, schedule: Q01DX Z (ip), vehicle: other
  T/C: 99 % of control
dose: 250.0 mg/kg/injection, schedule: Q01DX Z (ip), vehicle: other
  T/C: 96 % of control
dose: 1000.0 mg/kg/injection, schedule: Q01DX Z (ip), vehicle: other
  T/C: 102 % of control

## C[C@]12C=CC(=O)C=C1CC[C@@H]1[C@@H]2C(=O)C[C@@]2(C)[C@H]1CC[C@]2(O)C(=O)CO
dose: 6.25 mg/kg/injection, schedule: Q01DX Z (sc), vehicle: steriod suspending solution
  T/C: 114 % of control
dose: 12.5 mg/kg/injection, schedule: Q01DX010 (sc), vehicle: steriod suspending solution
  T/C: 93 % of control and 100 % of control
dose: 12.5 mg/kg/injection, schedule: Q01DX Z (sc), vehicle: steriod suspending solution
  T/C: 111 % of control and 124 % of control
dose: 25.0 mg/kg/injection, schedule: Q01DX010 (sc), vehicle: steriod suspending solution
  T/C: 112 % of control and 100 % of control and 101 % of control
dose: 25.0 mg/kg/injection, schedule: Q01DX Z (sc), vehicle: steriod suspending solution
  T/C: 105 % of control and 117 % of control
dose: 50.0 mg/kg/injection, schedule: Q01DX010 (sc), vehicle: steriod suspending solution
  T/C: 107 % of control and 95 % of control and 100 % of control
dose: 50.0 mg/kg/injection, schedule: Q01DX Z (sc), vehicle: steriod suspending solution
  T/C: 105 % of control and 91 % of control
dose: 100.0 mg/kg/injection, schedule: Q01DX010 (sc), vehicle: steriod suspending solution
  T/C: 112 % of control and 92 % of control and 93 % of control
dose: 100.0 mg/kg/injection, schedule: Q01DX Z (sc), vehicle: steriod suspending solution
  T/C: 92 % of control and 102 % of control
dose: 200.0 mg/kg/injection, schedule: Q01DX010 (sc), vehicle: steriod suspending solution
  T/C: 92 % of control and 93 % of control
dose: 200.0 mg/kg/injection, schedule: Q01DX Z (sc), vehicle: steriod suspending solution
  T/C: 98 % of control

## O=[n+]1c2c(n([O-])c3ccccc31)-c1cccc3cccc-2c13
dose: 6.25 mg/kg/injection, schedule: Q01DX010 (ip), vehicle: saline
  T/C: 100 % of control
dose: 12.5 mg/kg/injection, schedule: Q01DX010 (ip), vehicle: saline
  T/C: 100 % of control
dose: 25.0 mg/kg/injection, schedule: Q01DX010 (ip), vehicle: saline
  T/C: 88 % of control and 90 % of control
dose: 50.0 mg/kg/injection, schedule: Q01DX010 (ip), vehicle: saline
  T/C: 88 % of control and 90 % of control

## CC(=O)Nc1ccc2nc3ccc(NC(C)=O)cc3[n+](-c3ccccc3)c2c1
[2]
  T/C: 103 % of control
[3]
  T/C: 109 % of control
[4]
  T/C: 111 % of control
